Drawing on article PMC6315349 (2018), this text covers binding for 2 molecules.

Structures are written as SMILES.

Holding throughout (assay): fluorescence turn-on
For assay [1], the system named is RNA half adder + AND_DNA inhibitor + XOR_DNA inhibitor (0-0) (DNA:RNA, aptamer) GGUGCCCGCUGACCGGAGACGGUCAAAUAGAGCACAGGAUGGUAACGAAUGACCAGCCCGAGGUCGCGACCUUCUUUUCCCUCGCGACUCGAAAUGUUUCUUUUCGAGGUCGCCCCGUAUCUGUCGAGUAGAGUGUGGGCUCGCACGCGGCUGCC/GGCGGCTGCCGCGCAGAGACGGUCGGGUCCAGAUAUUGGAUCUUUCGCCUUUUCGCGAUACGGGCCAACGAUGGGUUUUGAAGGUCGCGACAAGGGCUGGTCCGACAUCCCACACAAATAGAGTGTGGGCCGAGCAGCGGCACC/GGUGCCCGCUGACCGGAGACGGUCAAAUAGAGCACAGGAUGGUAACGAAUGACCAGCCCGAGGGCGACCUCGUUUUGUACCAGCAUCCUCUUCAUAAGUUUUGGCGAAAGAUCCCGUAUCUGUCGAGUAGAGUGUGGGCUCGCACGCGGCUGCC/GGCGGCUGCCGCGCAGAGACGGUCGGGUCCAGAUAUUGGGCGACCUCGUUUUCCGGGAUAUGGUCUCGGCCAACUUUUCGAGGUCGCCCAAGGGCUGGUCCGACAUCCCACACAAAUAGAGUGUGGGCCGAGCAGCGGCAGC/GGAUGCUGGUACUUUUGUUGGCCGAGACCAUAUCCCGGUUUUGAAACAUUUCGAGUCGCGAGGGUUUUCCCAUCGUUGGCCCGUAUCGCGUUUUCUUAUGAAGA/ATAACAGCGCGTAGGGCCACGCTGCCGCTGCTCGGCCCACACTCTATTTGACCGGGATGTCGGACCAGCTGGTCATTCCTTACCATCCCACACTCTATTTGACCGTCTCCGGTCAGCGGGCAGGCGAGCCCTACGCGCTGTTAT/GGCAGCCGCGTGTGCCGCTGGCTCGGCCACACTCTATTTGACCGTCCGGTGCGAGCTGCGCGGCGAGCCCTA
The note with it: 22 °C, 1 μM RNA strands, 2 μM each inhibitor, 5 μM dye.

The test system of assay [2] is AND gate + AND_input A + AND_input B (1-1) (DNA:RNA, aptamer) GGUUUCAACCUUUGCAAACAUGCUUUGGAUGGUAACGAAUGACCAGCCCGAAAGGGCUGGUCCGACAUCCUUUGGGAAAUCCUUUGGGUGCCGUUU/GTAAGCTTTGGTTGA/AAACAGCGTCCAGAGGAT
The note with it: 100 mM NaCl, 10 mM MgCl2; 50 mM Tris pH 8.0, 22 °C; 1 μM RNA, 2 μM dye, 2 μM each input; output ON.

Assay [3] concerns AND gate + AND_input A (1-0) (DNA:RNA, aptamer) GGUUUCAACCUUUGCAAACAUGCUUUGGAUGGUAACGAAUGACCAGCCCGAAAGGGCUGGUCCGACAUCCUUUGGGAAAUCCUUUGGGUGCCGUUU/GTAAGCTTTGGTTGA …. Conditions: 100 mM NaCl, 10 mM MgCl2; 50 mM Tris pH 8.0, 22 °C; 2 μM dye, 2 μM input; output OFF (<60% normalized).
Assay [4] deals with NOR gate + NOR_input A (1-0) (DNA:RNA, aptamer) GGUUUGCAAACAUGCUUUGGAUGGUAACGAAUGACCAGCCCGAAAGGGCUGGUCCGACAUCCUUUGGGAAAUCCUUU/CCATCCAAAGCATGTTTGCAAA
Conditions: 100 mM NaCl, 10 mM MgCl2; 50 mM Tris pH 8.0, 22 °C; 1 μM RNA, 2 μM dye, 2 μM each input; output OFF.

The test system of assay [5] is RNA NAND/NOR gate (no inputs, 0-0) (RNA, aptamer) GGUUUGCAAACAUGCUUUGGAUGGUAACGAAUGACCAGCCCGAAAGGGCUGGUCCGACAUCCUUUGGGAAAUCCUUU
The note with it: 100 mM NaCl, 10 mM MgCl2; 50 mM Tris pH 8.0, 22 °C; 1 μM RNA, 2 μM dye; output ON.

The subject of assay [6] is OR gate + OR_input A + OR_input B (1-1) (DNA:RNA, aptamer) GGUUUCAACCUUUGCAAACAUGCUUUGGAUGGUAACGAAUGACCAGCCCGAAAGGGCUGGUCCGACAUCCUUUGGGAAAUCCUUUGGGUGCCGUUU/GCATGTTTGCAAAGGTTGAAA/AAACGGCGTCCAAAGGATTTCCC
Conditions: 100 mM NaCl, 10 mM MgCl2; 50 mM Tris pH 8.0, 22 °C; 1 μM RNA, 2 μM dye, 2 μM each input; output ON.

The test system of assay [7] is AND gate + AND_input B (0-1) (DNA:RNA, aptamer) GGUUUCAACCUUUGCAAACAUGCUUUGGAUGGUAACGAAUGACCAGCCCGAAAGGGCUGGUCCGACAUCCUUUGGGAAAUCCUUUGGGUGCCGUUU/AAACAGCGTCCAGAGGAT
Conditions: 100 mM NaCl, 10 mM MgCl2; 50 mM Tris pH 8.0, 22 °C; 2 μM dye, 2 μM input; output OFF (<60% normalized).

Assay [8] relates to NAND gate + NAND input B (0-1) (DNA:RNA, aptamer) GGUUUGCAAACAUGCUUUGGAUGGUAACGAAUGACCAGCCCGAAAGGGCUGGUCCGACAUCCUUUGGGAAAUCCUUU/TTGATTTCCCTTTGGT
The note with it: 100 mM NaCl, 10 mM MgCl2; 50 mM Tris pH 8.0, 22 °C; 2 μM dye; fluorescence slightly higher than without input.

For assay [9], the system named is NAND gate + NAND_input A (1-0) (DNA:RNA, aptamer) GGUUUGCAAACAUGCUUUGGAUGGUAACGAAUGACCAGCCCGAAAGGGCUGGUCCGACAUCCUUUGGGAAAUCCUUU/CTATAGCATGTTTGC
Conditions: 100 mM NaCl, 10 mM MgCl2; 50 mM Tris pH 8.0, 22 °C; 2 μM dye; fluorescence lower than without input.

For assay [10], the system named is OR gate + OR_input B (0-1) (DNA:RNA, aptamer) GGUUUCAACCUUUGCAAACAUGCUUUGGAUGGUAACGAAUGACCAGCCCGAAAGGGCUGGUCCGACAUCCUUUGGGAAAUCCUUUGGGUGCCGUUU/AAACGGCGTCCAAAGGATTTCCC
Conditions: 100 mM NaCl, 10 mM MgCl2; 50 mM Tris pH 8.0, 22 °C; 1 μM RNA, 2 μM dye, 2 μM each input; output ON.

Assay [11] deals with NAND gate + NAND_input A + NAND input B (1-1) (DNA:RNA, aptamer) GGUUUGCAAACAUGCUUUGGAUGGUAACGAAUGACCAGCCCGAAAGGGCUGGUCCGACAUCCUUUGGGAAAUCCUUU/CTATAGCATGTTTGC/TTGATTTCCCTTTGGT
Conditions: 100 mM NaCl, 10 mM MgCl2; 50 mM Tris pH 8.0, 22 °C; 2 μM dye; output OFF (<60% normalized).

Assay [12] has as its system RNA AND/OR gate (no inputs, 0-0) (RNA, aptamer) GGUUUCAACCUUUGCAAACAUGCUUUGGAUGGUAACGAAUGACCAGCCCGAAAGGGCUGGUCCGACAUCCUUUGGGAAAUCCUUUGGGUGCCGUUU
The note with it: 100 mM NaCl, 10 mM MgCl2; 50 mM Tris pH 8.0, 22 °C; 1 μM RNA, 2 μM dye; output OFF (<60% normalized).

Assay [13] has as its system NOR gate + NOR_input B (0-1) (DNA:RNA, aptamer) GGUUUGCAAACAUGCUUUGGAUGGUAACGAAUGACCAGCCCGAAAGGGCUGGUCCGACAUCCUUUGGGAAAUCCUUU/AAAGGATTTCCCAAAGGATGTCGGACC
The note with it: 100 mM NaCl, 10 mM MgCl2; 50 mM Tris pH 8.0, 22 °C; 1 μM RNA, 2 μM dye, 2 μM each input; output OFF.

Assay [14] relates to OR gate + OR_input A (1-0) (DNA:RNA, aptamer) GGUUUCAACCUUUGCAAACAUGCUUUGGAUGGUAACGAAUGACCAGCCCGAAAGGGCUGGUCCGACAUCCUUUGGGAAAUCCUUUGGGUGCCGUUU/GCATGTTTGCAAAGGTTGAAA
Conditions: 100 mM NaCl, 10 mM MgCl2; 50 mM Tris pH 8.0, 22 °C; 1 μM RNA, 2 μM dye, 2 μM each input; output ON.

The subject of assay [15] is NOR gate + NOR_input A + NOR_input B (1-1) (DNA:RNA, aptamer) GGUUUGCAAACAUGCUUUGGAUGGUAACGAAUGACCAGCCCGAAAGGGCUGGUCCGACAUCCUUUGGGAAAUCCUUU/CCATCCAAAGCATGTTTGCAAA/AAAGGATTTCCCAAAGGATGTCGGACC
Conditions: 100 mM NaCl, 10 mM MgCl2; 50 mM Tris pH 8.0, 22 °C; 1 μM RNA, 2 μM dye, 2 μM each input; output OFF.

Turning to `CC1=N/C(=C\c2cc(F)c(O)c(F)c2)C(=O)N1C`, in assay [1] (low fluorescence at 510 nm), the binding entry is on record as “no”.

`CN(C)c1ccc(C(=C2C=CC(=[N+](C)C)C=C2)c2ccccc2)cc1`: the binding result in assay [2] was “yes”; in [3], “weak”; in assay [4], “no”; in assay [5], “yes”; in assay [1] (low fluorescence at 650 nm) it was “no”; in assay [6], “yes”. The binding entry in [7] is reported as “weak”; in [8], “yes”; in assay [9], “yes”; in assay [10], “yes”; in assay [11], “weak”; in assay [12], “no”. Further, the binding entry is listed as “no” in assay [13], “yes” in [14] and “no” in assay [15].
